# Test results: ChEMBL document CHEMBL5126582, “Discovery of (2-(pyrrolidin-1-yl)thieno[3,2-d]pyrimidin-4-yl)(3,4,5-trimethoxyphenyl)methanone as a novel potent tubulin depolymerizing and vascular disrupting agent” (Eur J Med Chem, 2022)
# The source made the active and inactive calls. The calls are words filed in the database; no cut-off is given here.
# Tests used:
# HL-60 = test: Antiproliferative activity against human HL-60 cells assessed as reduction in cell viability incubated for 48 hrs by MTS assay; assay type: functional, cell-based; settings: HL-60, 48 h
# HeLa [1] = test: Inhibition of colony formation in human HeLa cells assessed as reduction in colony formation at 1 to 250 nM incubated for 48 hrs followed by culturing in fresh compound-free medium for 10 days by crystal violet staining based assay; assay type: functional, cell-based; settings: dose 1-250 nM, DDE = dose-dependent effect
# HeLa [2] = test: Inhibition of colony formation in human HeLa cells assessed as reduction in colony formation at 250 nM incubated for 24 hrs followed by culturing in fresh compound-free medium for 10 days by crystal violet staining based assay; assay type: functional, cell-based
# HeLa [3] = test: Induction of cell cycle arrest in human HeLa cells assessed as reduction of cells at G1 phase at 100 to 2000 nM incubated for 24 to 48 hrs by […] flow cytometry; assay type: functional; settings: dose 100-2000 nM, time 24-48 hrs
# HeLa [4] = test: Induction of apoptosis in human HeLa cells assessed as viable cells at 100 nM incubated for 24 hrs by annexin V FITC and propidium iodide staining based flow cytometry analysis (reference value: 85.7%); assay type: functional; settings: read-out: Activity
# HeLa [5] = test: Induction of apoptosis in human HeLa cells assessed as early apoptotic cells at 100 nM incubated for 24 hrs by annexin V FITC and propidium iodide staining based flow cytometry analysis (reference value: 0.12%); assay type: functional
# HeLa [6] = test: Induction of apoptosis in human HeLa cells assessed as necrotic cells at 100 nM incubated for 24 hrs by annexin V FITC and propidium iodide staining based flow cytometry analysis (reference value: 1.14 %); assay type: functional
# HeLa [7] = test: Induction of apoptosis in human HeLa cells assessed as early apoptotic cells at 500 nM incubated for 24 hrs by annexin V FITC and propidium iodide staining based flow cytometry analysis (reference value: 0.12%); assay type: functional
# HeLa [8] = test: Induction of apoptosis in human HeLa cells assessed as viable cells at 750 nM incubated for 24 hrs by annexin V FITC and propidium iodide staining based flow cytometry analysis (reference value: 85.7%); assay type: functional; settings: read-out: Activity
# HeLa [9] = test: Induction of apoptosis in human HeLa cells assessed as viable cells at 1 uM incubated for 24 hrs by annexin V FITC and propidium iodide staining based flow cytometry analysis (reference value: 85.7%); assay type: functional; settings: read-out: Activity
# HeLa [10] = test: Induction of apoptosis in human HeLa cells assessed as late apoptotic cells at 100 nM incubated for 48 hrs by annexin V FITC and propidium iodide staining based flow cytometry analysis (reference value: 8.87%); assay type: functional
# HeLa [11] = test: Induction of apoptosis in human HeLa cells assessed as early apoptotic cells at 500 nM incubated for 48 hrs by annexin V FITC and propidium iodide staining based flow cytometry analysis (reference value: 6.01%); assay type: functional
# HeLa [12] = test: Induction of apoptosis in human HeLa cells assessed as necrotic cells at 500 nM incubated for 48 hrs by annexin V FITC and propidium iodide staining based flow cytometry analysis (reference value: 1.85 %); assay type: functional
# HeLa [13] = test: Induction of apoptosis in human HeLa cells assessed as viable cells at 750 nM incubated for 48 hrs by annexin V FITC and propidium iodide staining based flow cytometry analysis (reference value: 85.5%); assay type: functional; settings: read-out: Activity
# HeLa [14] = test: Induction of apoptosis in human HeLa cells assessed as early apoptotic cells at 750 nM incubated for 48 hrs by annexin V FITC and propidium iodide staining based flow cytometry analysis (reference value: 6.01%); assay type: functional
# HeLa [15] = test: Induction of apoptosis in human HeLa cells assessed as late apoptotic cells at 750 nM incubated for 48 hrs by annexin V FITC and propidium iodide staining based flow cytometry analysis (reference value: 8.87%); assay type: functional
# HeLa [16] = test: Induction of apoptosis in human HeLa cells assessed as viable cells at 100 nM incubated for 72 hrs by annexin V FITC and propidium iodide staining based flow cytometry analysis (reference value: 90.1%); assay type: functional; settings: read-out: Activity
# HeLa [17] = test: Induction of apoptosis in human HeLa cells assessed as early apoptotic cells at 100 nM incubated for 72 hrs by annexin V FITC and propidium iodide staining based flow cytometry analysis (reference value: 2.36%); assay type: functional
# HeLa [18] = test: Induction of apoptosis in human HeLa cells assessed as early apoptotic cells at 500 nM incubated for 72 hrs by annexin V FITC and propidium iodide staining based flow cytometry analysis (reference value: 2.36%); assay type: functional
# HeLa [19] = test: Induction of apoptosis in human HeLa cells assessed as early apoptotic cells at 750 nM incubated for 72 hrs by annexin V FITC and propidium iodide staining based flow cytometry analysis (reference value: 2.36%); assay type: functional
# HeLa [20] = test: Induction of apoptosis in human HeLa cells assessed as necrotic cells at 750 nM incubated for 72 hrs by annexin V FITC and propidium iodide staining based flow cytometry analysis (reference value: 2.88 %); assay type: functional
# HeLa [21] = test: Induction of mitochondrial membrane potential alteration in human HeLa cells assessed as viable cells at 100 nM measured after 48 hrs by JC1 staining-based flow cytometry analysis (reference value: 90.9 %); assay type: functional; settings: read-out: Activity
# HeLa [22] = test: Induction of mitochondrial membrane potential alteration in human HeLa cells assessed as necrotic cells at 100 nM measured after 48 hrs by JC1 staining-based flow cytometry analysis (reference value: 0%); assay type: functional
# HeLa [23] = test: Induction of mitochondrial membrane potential alteration in human HeLa cells assessed as viable cells at 250 nM measured after 48 hrs by JC1 staining-based flow cytometry analysis (reference value: 90.9%); assay type: functional; settings: read-out: Activity
# HeLa [24] = test: Induction of mitochondrial membrane potential alteration in human HeLa cells assessed as late apoptotic cells at 250 nM measured after 48 hrs by JC1 staining-based flow cytometry analysis (reference value: 0.009%); assay type: functional
# HeLa [25] = test: Induction of mitochondrial membrane potential alteration in human HeLa cells assessed as necrotic cells at 250 nM measured after 48 hrs by JC1 staining-based flow cytometry analysis (reference value: 0%); assay type: functional
# HeLa [26] = test: Induction of mitochondrial membrane potential alteration in human HeLa cells assessed as viable cells at 500 nM measured after 48 hrs by JC1 staining-based flow cytometry analysis (reference value: 90.9%); assay type: functional; settings: read-out: Activity
# HeLa [27] = test: Induction of mitochondrial membrane potential alteration in human HeLa cells assessed as late apoptotic cells at 500 nM measured after 48 hrs by JC1 staining-based flow cytometry analysis (reference value: 0.009%); assay type: functional
# HeLa [28] = test: Induction of mitochondrial membrane potential alteration in human HeLa cells assessed as necrotic cells at 500 nM measured after 48 hrs by JC1 staining-based flow cytometry analysis (reference value: 0%); assay type: functional
# HeLa [29] = test: Induction of mitochondrial membrane potential alteration in human HeLa cells assessed as viable cells at 750 nM measured after 48 hrs by JC1 staining-based flow cytometry analysis (Rvb =90.9 %); assay type: functional; settings: read-out: Activity
# HeLa [30] = test: Induction of mitochondrial membrane potential alteration in human HeLa cells assessed as necrotic cells at 750 nM measured after 48 hrs by JC1 staining-based flow cytometry analysis (reference value: 0%); assay type: functional
# HeLa [31] = test: Induction of mitochondrial membrane potential alteration in human HeLa cells assessed as viable cells at 1 uM measured after 48 hrs by JC1 staining-based flow cytometry analysis (reference value: 90.9%); assay type: functional; settings: read-out: Activity
smiles,measurement,setting,value
COc1cc(C(=O)c2nc(N3CCCC3)nc3ccsc23)cc(OC)c1OC,IC50,HL-60,8 nM
same,inhibition,HeLa [1],Dde
same,inhibition,HeLa [2],Active
same,Activity,HeLa [3],Active
same,viability at 0.1 µM,HeLa [4],80.5%
same,Activity,HeLa [5],2.98%
same,Activity,HeLa [6],1.52%
same,Activity,HeLa [7],6.1%
same,viability at 0.75 µM,HeLa [8],81.3%
same,viability at 1 µM,HeLa [9],80.1%
same,Activity,HeLa [10],5.18%
same,Activity,HeLa [11],4.64%
same,Activity,HeLa [12],8.84%
same,viability at 0.75 µM,HeLa [13],36.7%
same,Activity,HeLa [14],7.72%
same,Activity,HeLa [15],33.1%
same,viability at 0.1 µM,HeLa [16],85.1%
same,Activity,HeLa [17],2.65%
same,Activity,HeLa [18],0.734%
same,Activity,HeLa [19],1.24%
same,Activity,HeLa [20],40.8%
same,viability at 0.1 µM,HeLa [21],92.4%
same,Activity,HeLa [22],0.02%
same,viability at 0.25 µM,HeLa [23],90.5%
same,Activity,HeLa [24],0.01%
same,Activity,HeLa [25],0.01%
same,viability at 0.5 µM,HeLa [26],66.9%
same,Activity,HeLa [27],0.019%
same,Activity,HeLa [28],0.01%
same,viability at 0.75 µM,HeLa [29],56.7%
same,Activity,HeLa [30],0.019%
same,viability at 1 µM,HeLa [31],44.6%
